Assay results reported in ChEMBL document CHEMBL1201862, “PubChem BioAssay data set” (2004).
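A five-concentration, 48-hour dose response in 96-well plates underlies each endpoint, interpolated linearly between surrounding concentrations. Abbreviation: GI50, concentration required for 50% inhibition of growth.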 The source made the active and inactive calls. Rule as the data show it: active = GI50 up to about 1.1 µM and inactive = higher.

How the values were obtained:
Test in all cases: NCI anticancer screen, dose series, 48 h
786-0 = tested on: 786-0
A498 = tested on: A498
A549 = tested on: A549
ACHN = tested on: ACHN
BT-549 = tested on: BT-549
CAKI-1 = tested on: CAKI-1
CCRF-CEM = tested on: CCRF-CEM
COLO 205 = tested on: COLO 205
DU-145 = tested on: DU-145
EKVX = tested on: EKVX
HCC 2998 = tested on: HCC 2998
HCT-116 = tested on: HCT-116
HCT-15 = tested on: HCT-15
HL-60 = tested on: HL-60
HOP-62 = tested on: HOP-62
HOP-92 = tested on: HOP-92
HT-29 = tested on: HT-29
Hs-578T = tested on: Hs-578T
IGROV-1 = tested on: IGROV-1
K562 = tested on: K562
KM12 = tested on: KM12
LOX IMVI = tested on: LOX IMVI
M14 = tested on: M14
MCF7 = tested on: MCF7
MDA-MB-231 = tested on: MDA-MB-231
MDA-MB-435 = tested on: MDA-MB-435
MDA-N = tested on: MDA-N
MOLT-4 = tested on: MOLT-4
Malme-3M = tested on: Malme-3M
NCI-H226 = tested on: NCI-H226
NCI-H23 = tested on: NCI-H23
NCI-H460 = tested on: NCI-H460
NCI-H522 = tested on: NCI-H522
NCI/ADR-RES = tested on: NCI/ADR-RES
OVCAR-3 = tested on: OVCAR-3
OVCAR-4 = tested on: OVCAR-4
OVCAR-5 = tested on: OVCAR-5
OVCAR-8 = tested on: OVCAR-8
PC-3 = tested on: PC-3
RPMI-8226 = tested on: RPMI-8226
RXF 393 = tested on: RXF 393
SF-268 = tested on: SF-268
SF-295 = tested on: SF-295
SF-539 = tested on: SF-539
SK-MEL-28 = tested on: SK-MEL-28
SK-MEL-2 = tested on: SK-MEL-2
SK-MEL-5 = tested on: SK-MEL-5
SK-OV-3 = tested on: SK-OV-3
SN12C = tested on: SN12C
SNB-19 = tested on: SNB-19
SNB-75 = tested on: SNB-75
SR = tested on: SR
SW-620 = tested on: SW-620
T47D = tested on: T47D
TK-10 = tested on: TK-10
U-251 = tested on: U-251
UACC-257 = tested on: UACC-257
UACC-62 = tested on: UACC-62
UO-31 = tested on: UO-31

`CC(C)(C)c1cc(C(=O)/C=C/c2ccc3c(c2)OCO3)cc(C(C)(C)C)c1O` was tested, and the GI50 (786-0) was 6.62 µM (inactive), the GI50 (A498) was 10.3 µM (inactive) and the GI50 (A549) was 9.64 µM (inactive). The GI50 (ACHN) was 8.55 µM (inactive), the GI50 (BT-549) was 6.3 µM (inactive) and the GI50 (CAKI-1) was 9.29 µM (inactive). The GI50 (CCRF-CEM) was 3.48 µM (inactive), the GI50 (COLO 205) was 5.61 µM (inactive) and the GI50 (DU-145) was 5.06 µM (inactive). For the same compound, the GI50 (EKVX) was 21.9 µM (inactive), the GI50 (HCC 2998) was 1.75 µM (inactive) and the GI50 (HCT-116) was 4.51 µM (inactive). The GI50 (HCT-15) was 4.83 µM, the GI50 (HL-60) was 3.07 µM (inactive) and the GI50 (HOP-62) was 19.4 µM (inactive). The GI50 (HOP-92) was 25.6 µM (inactive), the GI50 (HT-29) was 5.73 µM (inactive) and the GI50 (Hs-578T) was 6.93 µM (inactive). The GI50 (IGROV-1) was 17.9 µM (inactive), the GI50 (K562) was 5.24 µM (inactive) and the GI50 (KM12) was 5.05 µM (inactive). For the same compound, the GI50 (LOX IMVI) was 8.32 µM (inactive), the GI50 (M14) was 8.11 µM (inactive) and the GI50 (MCF7) was 5.28 µM (inactive). For the same compound, the GI50 (MDA-MB-231) was 8.11 µM (inactive), the GI50 (MDA-MB-435) was 2.26 µM (inactive) and the GI50 (MDA-N) was 1.98 µM (inactive). The GI50 (MOLT-4) was 5.6 µM (inactive), the GI50 (Malme-3M) was 32.4 µM (inactive) and the GI50 (NCI-H226) was 15.2 µM (inactive). For the same compound, the GI50 (NCI-H23) was 9.82 µM (inactive), the GI50 (NCI-H460) was 4.8 µM (inactive) and the GI50 (NCI-H522) was 11.9 µM (inactive). The GI50 (NCI/ADR-RES) was 4.29 µM (inactive), the GI50 (OVCAR-3) was 4.53 µM (inactive) and the GI50 (OVCAR-4) was 6.95 µM (inactive). The GI50 (OVCAR-5) was 16.3 µM (inactive), the GI50 (OVCAR-8) was 13.6 µM (inactive) and the GI50 (PC-3) was 3.99 µM (inactive). The GI50 (RPMI-8226) was 4.39 µM (inactive), the GI50 (RXF 393) was 1.86 µM (inactive) and the GI50 (SF-268) was 8.79 µM (inactive). For the same compound, the GI50 (SF-295) was 5.7 µM (inactive), the GI50 (SF-539) was 6.44 µM (inactive) and the GI50 (SK-MEL-28) was 18.6 µM (inactive). The GI50 (SK-MEL-2) was 3.26 µM (inactive), the GI50 (SK-MEL-5) was 4.2 µM (inactive) and the GI50 (SK-OV-3) was 15.8 µM (inactive). For the same compound, the GI50 (SN12C) was 10.1 µM (inactive), the GI50 (SNB-19) was 13.3 µM (inactive) and the GI50 (SNB-75) was 3.2 µM (inactive). For the same compound, the GI50 (SR) was 2.18 µM (inactive), the GI50 (SW-620) was 5.96 µM (inactive) and the GI50 (T47D) was 2.55 µM (inactive). The GI50 (TK-10) was 9.91 µM (inactive), the GI50 (U-251) was 6.68 µM (inactive) and the GI50 (UACC-257) was 2.95 µM (inactive). For the same compound, the GI50 (UACC-62) was 6.04 µM (inactive) and the GI50 (UO-31) was 6.38 µM (inactive).
With `C=C1C(=O)O[C@@H]2C(=O)[C@@H](C)[C@@H]3C=CC(=O)[C@@]3(C)[C@@H](OC(=O)/C(C)=C\C)[C@H]12` [MULTISTATIN] the GI50 (786-0) was 0.31 µM (active), the GI50 (A498) was 1.69 µM (inactive) and the GI50 (A549) was 10.6 µM (inactive). The GI50 (ACHN) was 0.212 µM (active), the GI50 (BT-549) was 0.689 µM (active) and the GI50 (CAKI-1) was 0.264 µM (active). For the same compound, the GI50 (CCRF-CEM) was 0.168 µM (active), the GI50 (COLO 205) was 0.237 µM (active) and the GI50 (DU-145) was 1.57 µM (inactive). The GI50 (EKVX) was 1.1 µM (active), the GI50 (HCC 2998) was 1.71 µM (inactive) and the GI50 (HCT-116) was 0.238 µM (active). For the same compound, the GI50 (HCT-15) was 0.284 µM, the GI50 (HL-60) was 0.132 µM (active) and the GI50 (HOP-62) was 11.9 µM (inactive). The GI50 (HOP-92) was 0.393 µM (active), the GI50 (HT-29) was 0.371 µM (active) and the GI50 (Hs-578T) was 6.44 µM (inactive). For the same compound, the GI50 (IGROV-1) was 1.48 µM (inactive), the GI50 (K562) was 0.293 µM (active) and the GI50 (KM12) was 2.3 µM (inactive). For the same compound, the GI50 (LOX IMVI) was 0.555 µM (active), the GI50 (M14) was 1.56 µM (inactive) and the GI50 (MCF7) was 0.394 µM (active). The GI50 (MDA-MB-231) was 1.88 µM (inactive), the GI50 (MDA-MB-435) was 1.29 µM (inactive) and the GI50 (MDA-N) was 0.675 µM (active). The GI50 (MOLT-4) was 0.41 µM (active), the GI50 (Malme-3M) was 0.298 µM (active) and the GI50 (NCI-H226) was 2.38 µM (inactive). For the same compound, the GI50 (NCI-H23) was 2.88 µM (inactive), the GI50 (NCI-H460) was 2.21 µM (inactive) and the GI50 (NCI-H522) was 0.0883 µM (active). The GI50 (NCI/ADR-RES) was 2.37 µM (inactive), the GI50 (OVCAR-3) was 0.653 µM (active) and the GI50 (OVCAR-4) was 5.04 µM (inactive). For the same compound, the GI50 (OVCAR-5) was 2.22 µM (inactive), the GI50 (OVCAR-8) was 1.73 µM (inactive) and the GI50 (PC-3) was 2.29 µM (inactive). The GI50 (RPMI-8226) was 0.327 µM (active), the GI50 (RXF 393) was 0.378 µM (active) and the GI50 (SF-268) was 1.69 µM (inactive). The GI50 (SF-295) was 13 µM (inactive), the GI50 (SF-539) was 1.84 µM (inactive) and the GI50 (SK-MEL-28) was 0.278 µM (active). For the same compound, the GI50 (SK-MEL-2) was 2.86 µM (inactive), the GI50 (SK-MEL-5) was 1.68 µM (inactive) and the GI50 (SK-OV-3) was 13.1 µM (inactive). For the same compound, the GI50 (SN12C) was 1.42 µM (inactive), the GI50 (SNB-19) was 12.9 µM (inactive) and the GI50 (SNB-75) was 5.53 µM (inactive). For the same compound, the GI50 (SR) was 0.223 µM (active), the GI50 (SW-620) was 0.361 µM (active) and the GI50 (T47D) was 0.483 µM (active). For the same compound, the GI50 (TK-10) was 0.538 µM (active), the GI50 (U-251) was 2.43 µM (inactive) and the GI50 (UACC-257) was 1.47 µM (inactive). For the same compound, the GI50 (UACC-62) was 1.25 µM (inactive) and the GI50 (UO-31) was 1.21 µM (inactive).
